± gives the standard deviation of the averaged measurements.
How the values were obtained:
Assay in all cases: level (log10 ratio to DMSO vehicle control); higher = higher biomarker level / cell amount than vehicle control
Conditions in all cases: in DMSO
[1] = compound: C=C(C)C(=O)OCC(F)(F)C(F)(F)C(F)(F)C(F)(F)C(F)(F)C(F)(F)C(F)(F)F
Protocol: (§1)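 BioMAP Diversity Plus panel of 12 human primary cell co-culture systems (3C, 4H, LPS, SAg, BT, BF4T, BE3C, CASM3C, HDF3CGF, KF3CT, MyoF, Mphg). Compounds were added 1 h before stimulation and left for 24 h (MyoF 48 h; BT 72 h for soluble read-outs or 6 d for IgG). Biomarkers were read by ELISA, cytotoxicity by SRB, PBMC viability and proliferation by Alamar Blue. Each well value was divided by the mean of 8 DMSO control wells on the same plate and log10 transformed; duplicate blinded samples were tested at 4 concentrations.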

Azathioprine = compound: Cn1cnc([N+](=O)[O-])c1Sc1ncnc2[nH]cnc12 [Azathioprine]
Protocol: as §1

1H,1H-Heptafluorobutanol = compound: OCC(F)(F)C(F)(F)C(F)(F)F [1H,1H-Heptafluorobutanol]
Protocol: as §1

[2] = compound: O=C(O)C(F)(F)C(F)(F)C(F)(F)C(F)(F)C(F)(F)C(F)(F)C(F)(F)C(F)(F)C(F)(F)C(F)(F)C(F)(F)C(F)(F)C(F)(F)F [Perfluorotetradecanoic acid]
Protocol: as §1

[3] = compound: O=C(O)C(F)(F)OC(F)(F)C(F)(F)OC(F)(F)C(F)(F)C(F)(F)C(F)(F)F [Perfluoro-3,6-dioxadecanoic acid]
Protocol: as §1

[4] = compound: O=C(O)CCC(F)(F)C(F)(F)C(F)(F)F [3:3 Fluorotelomer carboxylic acid]
Protocol: as §1

1-(Perfluorohexyl)octane = compound: CCCCCCCCC(F)(F)C(F)(F)C(F)(F)C(F)(F)C(F)(F)C(F)(F)F [1-(Perfluorohexyl)octane]
Protocol: as §1

Row | Test System | level (log10) ([1]; 6700 nM) | level (log10) ([1]; 20000 nM) | level (log10) (Azathioprine; 1400 nM) | level (log10) (Azathioprine; 4200 nM) | level (log10) (Azathioprine; 13000 nM) | level (log10) (Azathioprine; 38000 nM) | level (log10) (1H,1H-Heptafluorobutanol; 6700 nM) | level (log10) (1H,1H-Heptafluorobutanol; 20000 nM) | level (log10) (1H,1H-Heptafluorobutanol; 60000 nM) | level (log10) ([2]; 6700 nM) | level (log10) ([2]; 20000 nM) | level (log10) ([3]; 6700 nM) | level (log10) ([3]; 20000 nM) | level (log10) ([3]; 60000 nM) | level (log10) ([4]; 6700 nM) | level (log10) ([4]; 20000 nM) | level (log10) ([4]; 60000 nM) | level (log10) (1-(Perfluorohexyl)octane; 6700 nM) | level (log10) (1-(Perfluorohexyl)octane; 20000 nM)
1 | HDF3CGF:TIMP-2 | 0.0535 ± 0.0092 | 0.0035 ± 0.056 | -0.0175 ± 0.00071 | -0.023 ± 0.048 | 0.0315 ± 0.056 | 0.049 ± 0.018 | -0.0055 ± 0.025 | 0.018 ± 0.033 | -0.029 ± 0.037 | 0.091 ± 0.0085 | 0.036 ± 0.05 | -0.0245 ± 0.028 | -0.035 ± 0.0085 | -0.0625 ± 0.0078 | -0.0075 ± 0.023 | -0.0015 ± 0.0035 | -0.0195 ± 0.0064 | -0.005 ± 0.067 | -0.0035 ± 0.052
2 | KF3CT:CCL2/MCP-1 | -0.016 ± 0.025 | 0.0325 ± 0.03 | -0.0045 ± 0.0092 | -0.008 ± 0.0099 | -0.0335 ± 0.015 | -0.015 ± 0.0014 | 0.0035 ± 0.005 | 0.006 ± 0.0042 | 0.0235 ± 0.015 | 0.004 ± 0.0071 | 0.0205 ± 0.0078 | -0.0115 ± 0.018 | -0.014 ± 0.0071 | -0.08 ± 0.0042 | -0.005 ± 0.025 | -0.0135 ± 0.016 | 0.0225 ± 0.046 | 0.0005 ± 0.023 | 0.036 ± 0.033
3 | KF3CT:CD54/ICAM-1 | 0.0045 ± 0.019 | -0.018 ± 0.031 | -0.02 ± 0.0028 | 0.0015 ± 0.0092 | -0.005 ± 0.0085 | 0.0045 ± 0.011 | 0.009 ± 0.0099 | -0.0095 ± 0.0092 | 0.019 ± 0.0014 | -0.003 ± 0.027 | -0.0375 ± 0.015 | -0.0295 ± 0.023 | -0.0435 ± 0.0035 | -0.033 ± 0.0085 | -0.0055 ± 0.0092 | -0.008 ± 0.0014 | 0.001 ± 0.028 | 0.0045 ± 0.033 | -0.0065 ± 0.0035
4 | KF3CT:CXCL8/IL-8 | -0.0025 ± 0.019 | 0.009 ± 0.033 | -0.0045 ± 0.015 | -0.0225 ± 0.025 | -0.0545 ± 0.019 | -0.0335 ± 0.016 | -0.02 ± 0.0014 | -0.021 ± 0.0028 | -0.0025 ± 0.016 | 0.0005 ± 0.013 | 0.0245 ± 0.025 | -0.019 ± 0.011 | -0.0145 ± 0.00071 | -0.103 ± 0.014 | 0.0005 ± 0.022 | -0.0035 ± 0.0092 | -0.0005 ± 0.0064 | 0.009 ± 0.0085 | 0.021 ± 0.0057
5 | KF3CT:CXCL9/MIG | 0.007 ± 0.0028 | 0.006 ± 0.0028 | -0.0015 ± 0.00071 | -0.008 ± 0.0014 | -0.005 ± 0.0099 | 0.0205 ± 0.015 | -0.0015 ± 0.0021 | 0.002 ± 0.0028 | 0.0055 ± 0.005 | -0.0065 ± 0.016 | 0.0055 ± 0.00071 | -0.0095 ± 0.0064 | -0.002 ± 0.0028 | -0.005 ± 0.0085 | 0 ± 0.0099 | 0.0055 ± 0.015 | 0.005 ± 0.0028 | 0.0085 ± 0.013 | 0.001 ± 0.0057
6 | KF3CT:CXCL10/IP-10 | 0.0075 ± 0.005 | -0.015 ± 0.011 | 0.0135 ± 0.00071 | -0.0035 ± 0.0021 | -0.0105 ± 0.011 | -0.0035 ± 0.019 | 0.004 ± 0.0042 | -0.0025 ± 0.016 | 0.012 ± 0.0071 | 0.0065 ± 0.016 | -0.0165 ± 0.016 | -0.022 ± 0.0042 | -0.0335 ± 0.011 | -0.113 ± 0.028 | -0.0015 ± 0.0035 | -0.008 ± 0.0057 | -0.0045 ± 0.0035 | -0.0055 ± 0.018 | -0.011 ± 0.0099
7 | KF3CT:IL-1alpha | -0.014 ± 0.023 | 0.0015 ± 0.0092 | -0.015 ± 0.0099 | 0.01 ± 0.013 | 0.0115 ± 0.005 | 0.035 ± 0.0042 | 0 ± 0.0042 | 0 ± 0.0014 | -0.018 ± 0.0057 | -0.0135 ± 0.081 | -0.0235 ± 0.054 | 0.022 ± 0.0057 | -0.0495 ± 0.013 | -0.0295 ± 0.005 | -0.0065 ± 0.059 | 0.0035 ± 0.023 | 0.0135 ± 0.019 | -0.009 ± 0.04 | 0.0175 ± 0.0092
8 | KF3CT:MMP-9 | 0.012 ± 0.03 | 0.009 ± 0.027 | -0.008 ± 0.011 | 0.0015 ± 0.0064 | -0.0255 ± 0.0064 | -0.0375 ± 0.011 | -0.013 ± 0.0071 | -0.0065 ± 0.005 | -0.01 ± 0.0028 | -0.005 ± 0.0014 | 0.0065 ± 0.032 | -0.012 ± 0.014 | 0.005 ± 0.034 | 0.0215 ± 0.0078 | 0.001 ± 0.0028 | -0.001 ± 0.0042 | 0.003 ± 0.0042 | -0.006 ± 0.024 | 0.0075 ± 0.029
9 | KF3CT:PAI-I | -0.004 ± 0.02 | 0.006 ± 0.0014 | 0.01 ± 0.024 | -0.0105 ± 0.015 | -0.0365 ± 0.011 | -0.071 ± 0.0071 | 0.0075 ± 0.0021 | -0.0005 ± 0.0035 | -0.0045 ± 0.0021 | -0.015 ± 0.0014 | 0 ± 0.0071 | -0.007 ± 0.0014 | -0.0325 ± 0.0078 | -0.0495 ± 0.021 | -0.009 ± 0.031 | -0.0125 ± 0.0021 | -0.004 ± 0.0071 | 0.0165 ± 0.0078 | 0.026 ± 0.011
10 | KF3CT:SRB | -0.0185 ± 0.0092 | -0.015 ± 0.011 | 0.003 ± 0.0057 | 0.0015 ± 0.0064 | 0.001 ± 0.0057 | -0.0065 ± 0.0021 | 0.0015 ± 0.015 | 0.0005 ± 0.00071 | 0.0095 ± 0.0021 | -0.0005 ± 0.0035 | 0.0025 ± 0.0078 | -0.0175 ± 0.011 | -0.022 ± 0.013 | -0.013 ± 0.031 | -0.0085 ± 0.00071 | -0.004 ± 0.0042 | 0.0015 ± 0.018 | -0.0025 ± 0.023 | -0.0115 ± 0.015
11 | KF3CT:TIMP-2 | 0.0115 ± 0.018 | -0.0195 ± 0.0064 | -0.041 ± 0.013 | 0 ± 0.021 | 0.0385 ± 0.0078 | 0.0585 ± 0.011 | 0.0155 ± 0.011 | 0.002 ± 0.0057 | -0.007 ± 0.0042 | 0.0455 ± 0.032 | 0.0065 ± 0.012 | -0.038 ± 0.0099 | -0.0255 ± 0.043 | -0.03 ± 0.024 | -0.002 ± 0.021 | -0.006 ± 0.0099 | -0.0025 ± 0.016 | 0.004 ± 0.02 | -0.016 ± 0.011
12 | KF3CT:uPA | 0.0105 ± 0.0092 | 0.009 ± 0.0085 | 0.011 ± 0.0028 | 0.015 ± 0.016 | -0.003 ± 0.0071 | -0.0025 ± 0.0078 | 0.0095 ± 0.0021 | 0.0015 ± 0.0078 | 0.0065 ± 0.00071 | -0.014 ± 0.038 | 0.0115 ± 0.032 | -0.0095 ± 0.0064 | -0.0065 ± 0.03 | 0.0095 ± 0.005 | -0.01 ± 0.017 | -0.0165 ± 0.0092 | -0.009 ± 0.0014 | 0.01 ± 0.024 | -0.0055 ± 0.029
13 | MyoF:CD106/VCAM-1 | 0.0035 ± 0.015 | 0.019 ± 0.0099 | -0.01 ± 0.0099 | 0.008 | -0.0165 ± 0.005 | -0.022 ± 0.014 | 0.0025 ± 0.022 | 0.0025 ± 0.011 | 0.008 ± 0.0014 | -0.0045 ± 0.019 | 0.013 ± 0.025 | -0.0055 ± 0.00071 | -0.0285 ± 0.026 | -0.045 ± 0.021 | -0.0005 ± 0.012 | -0.016 ± 0.0085 | -0.013 ± 0.0085 | -0.0085 ± 0.005 | -0.027 ± 0.033
14 | MyoF:CXCL8/IL-8 | -0.0215 ± 0.013 | 0.013 ± 0.014 | 0.009 ± 0.014 | 0.023 ± 0.017 | 0.027 ± 0.02 | 0.0395 ± 0.015 | -0.0145 ± 0.033 | 0.016 ± 0.02 | 0.008 ± 0.0057 | 0.0095 ± 0.0078 | 0.017 ± 0.0071 | 0.011 ± 0.011 | 0.0335 ± 0.013 | 0.0145 ± 0.0021 | -0.016 ± 0.037 | -0.0275 ± 0.05 | 0.0145 ± 0.093 | 0.0015 ± 0.029 | 0.028 ± 0.011
15 | MyoF:Collagen I | 0.01 | -0.007 ± 0.0071 | -0.0085 ± 0.015 | -0.0095 ± 0.013 | -0.024 | 0.011 ± 0.0028 | -0.01 ± 0.024 | -0.0065 ± 0.022 | -0.0005 ± 0.013 | 0.0015 ± 0.0078 | 0.0215 ± 0.033 | -0.026 ± 0.025 | -0.0525 ± 0.0021 | -0.19 ± 0.011 | -0.0005 ± 0.037 | 0.0095 ± 0.0035 | 0.0255 ± 0.026 | 0.0045 ± 0.016 | -0.0205 ± 0.0035
